In US20040224898A1, “Compositions and methods for promoting lipid mobilization in humans” (priority 2002, published 2004):

How the values were obtained:
Type in all cases: cell-based
human adipocytes [1] = assay: Glycerol release assay
Procedure: (§1) Human pre-adipocytes were isolated by liposuction and maintained in AGM for three weeks in order to permit the pre-adipocytes to differentiate to become mature adipocytes. AGM was removed, and adipocytes were incubated in Krebs-Ringers buffer comprising 0.1% fatty acid-free BSA at 37° C. for five hours in the presence of selected concentrations (10^−9 to 10^−5 molar) of one of Schistocera gregaria AKH II, cockroach hypertrehalosemic factor (obtained from Sigma Chemical Co, St. Louis, Mo., catalog number P0175), and Locusta migratoria AKH I (obtained from American Peptide Co., Sunnyvale, Calif., catalog number 60-9-18). Glycerol released from the adipocytes was assayed using a commercially available kit (GPO-trinder assay kit available form Sigma Chemical Company, St. Louis, Mo.).
A similar experiment was performed, in which glycerol release from adipocytes was assessed in the presence of the Locusta migratoria AKH I or the cockroach hypertrehalosemic factor or in the presence of isoproterenol.

human adipocytes [2] = assay: Effect of propanolol on agent-induced glycerol release; settings: agent 10 micromolar
Procedure: as §1
Glycerol release assays were performed as described in Example 2, except that the assays were performed using single selected concentrations of one of cockroach hypertrehalosemic factor, Locusta migratoria AKH I, and isoproterenol and multiple selected concentrations of propanolol.

human adipocytes [3] = assay: Release of tritium label from radiolabeled palmitate (lipid mobilizing activity); settings: for % Tritium Label Release with Agent: 4 hours, 37° C., Table 6 experiment
Procedure: Lipid mobilizing activity was assessed by assaying release of tritium label from radiolabeled palmitate. This assay was performed by maintaining human pre-adipocytes in Adipocyte Growth Medium (AGM), which is Dulbecco's Modified Eagle's Medium (DMEM) mixed 1:1 by volume with Ham's F-10 medium. Ham's F-10 medium comprises 15 millimolar HEPES buffer adjusted to pH 7.4 and supplemented with biotin, pantothenate, human recombinant insulin, dexamethasone, fungicide, bactericide, and 3% (v/v) fetal bovine serum). Pre-adipocytes differentiated to become mature adipocytes by three weeks of maintenance in AGM. On the day prior to assay, the adipocytes were washed and incubated overnight in Krebs-Ringers buffer comprising 0.1% fatty acid-free bovine serum albumin (BSA) and comprising 1 microCurie per milliliter of tritiated (9,10-^3H) palmitate. The following day, the medium was removed, and the cells were washed three times […]. Isoproterenol (0 to 5×10^−8 molar), Schistocera gregaria AKH II (0 to 5×10^−5 molar), or Krebs-Ringer buffer (with 0.1% fatty acid-free BSA) containing neither of these was added to the cell suspension in a volume of 150 microliters. The suspensions were incubated for 4 hours at 37° C., and then 100 microliters of each sample was subjected to scintillation counting to detect released label in the supernatant. The total amount of label incorporated was determined for each well by solubilizing the cells using 1% sodium dodecyl sulfate and subjecting the entire contents of the well to scintillation counting. Fractional release of label was calculated by dividing the amount of label detected in cell supernatant by the total amount of label detected in the supernatant and in the cells remaining in the well, and percentage release was calculated by multiplying fractional release by 100.
A similar study was done using the same methods, except that cockroach hypertrehalosemic factor (0 to 5×10^−5 molar) was used in place of S. gregaria AKH II.
A similar tritium label release experiment performed using Heliothis zea AKH II and Locusta migratoria, except that a two-hour incubation period was used in place of a 4 hour incubation period.

## EVNFSPGWGT (listed as Gromphadorhina portentosa) [cockroach hypertrehalosemic factor, insect AKH family peptide, Sigma Chemical Co. catalog number P0175]
Human adipocytes [1]; agent 1 × 10^−5, Table 9 experiment
  Glycerol Release with Agent (medium concentration in millimolar): 0.1515 ± 0.0155 millimolar
Human adipocytes [1]; agent 1 × 10^−5 molar, five hours, 37° C., Table 8 experiment
  Glycerol Release with Agent (medium concentration in millimolar): 1.124 millimolar
Human adipocytes [1]; agent 1 × 10^−6, Table 9 experiment
  Glycerol Release with Agent (medium concentration in millimolar): 0.1216 ± 0.0103 millimolar
Human adipocytes [1]; agent 1 × 10^−6 molar, five hours, 37° C., Table 8 experiment
  Glycerol Release with Agent (medium concentration in millimolar): 0.555 millimolar
Human adipocytes [1]; agent 1 × 10^−7, Table 9 experiment
  Glycerol Release with Agent (medium concentration in millimolar): 0.0944 ± 0.00166 millimolar
Human adipocytes [1]; agent 1 × 10^−7 molar, five hours, 37° C., Table 8 experiment
  Glycerol Release with Agent (medium concentration in millimolar): 0.527 millimolar
Human adipocytes [1]; agent 1 × 10^−8, Table 9 experiment
  Glycerol Release with Agent (medium concentration in millimolar): 0.0817 ± 0.0113 millimolar
Human adipocytes [1]; agent 1 × 10^−8 molar, five hours, 37° C., Table 8 experiment
  Glycerol Release with Agent (medium concentration in millimolar): 0.451 millimolar
Human adipocytes [1]; agent 1 × 10^−9 molar, five hours, 37° C., Table 8 experiment
  Glycerol Release with Agent (medium concentration in millimolar): 0.603 millimolar
Human adipocytes [1]; conclusion of Example 2
  Ability to promote lipid mobilization in human adipocytes: able to promote lipid mobilization
Human adipocytes [2]; propanolol 0 molar
  Glycerol Release with Agent (medium concentration in millimolar): 0.1515 ± 0.0155 millimolar
Human adipocytes [2]; propanolol 1 × 10^−5 molar
  Glycerol Release with Agent (medium concentration in millimolar): 0.2033 ± 0.0134 millimolar
Human adipocytes [2]; propanolol 1 × 10^−6 molar
  Glycerol Release with Agent (medium concentration in millimolar): 0.1370 ± 0.0170 millimolar
Human adipocytes [2]; propanolol 1 × 10^−7 molar
  Glycerol Release with Agent (medium concentration in millimolar): 0.1161 ± 0.0232 millimolar
Human adipocytes [3]; agent 1 × 10^−5 molar
  % Tritium Label Release with Agent: 9.08%
Human adipocytes [3]; agent 1 × 10^−6 molar
  % Tritium Label Release with Agent: 8.77%
Human adipocytes [3]; agent 1 × 10^−7 molar
  % Tritium Label Release with Agent: 7.17%
Human adipocytes [3]; agent 1 × 10^−8 molar
  % Tritium Label Release with Agent: 7.24%
Human adipocytes [3]; agent 1 × 10^−9 molar
  % Tritium Label Release with Agent: 6.88%
Human adipocytes [3]; agent 1 × 10^−10 molar
  % Tritium Label Release with Agent: 7.21%
Human adipocytes [3]; agent 5 × 10^−5 molar
  % Tritium Label Release with Agent: 9.7%
Human adipocytes [3]; agent 5 × 10^−6 molar
  % Tritium Label Release with Agent: 9.36%
Human adipocytes [3]; agent 5 × 10^−7 molar
  % Tritium Label Release with Agent: 8.08%
Human adipocytes [3]; conclusion of Example 1, murine adipocytes
  Ability to mobilize lipids in adipocytes: able to mobilize lipids
